The values that follow come from article PMC9120013, “Ribosome inhibition by C9ORF72-ALS/FTD-associated poly-PR and poly-GR proteins revealed by cryo-EM” (Nature Communications, 2022).

Ends that are not written are not given here.

One data set concerns rabbit 80S ribosomes. Put plainly: Kinetic peptidyl transfer (puromycin) assay on rabbit 80S ribosomes. It counts as biochemical. An excerpt: To test the effects of PR20 on the mammalian peptidyl transferase, 80S ribosomes were purified from rabbit reticulocyte lysate (Green Hectares) and dissociated into 40S and 60S subunits as described in the section entitled “Cryo-EM complex of mammalian 80S ribosome with PR20”. A model leaderless mRNA fragment placing the AUG codon in the P-site and the UUC codon in the A site (CCAC AUG UUC CCCCCCCCCCCCCCCCCC), was synthesized by IDT. The 80S•mRNA•fMet-tRNA^fMet complex with PRn (where n = 10, 20, or 40) or GR20 was assembled as follows. one micrometer 60S subunit was mixed with the DPR (starting with the initial DPR concentration of 33x relative to its final concentration in the reaction) in Assembly Buffer containing 20 mM Tris-acetate (pH 7.0), 100 mM KOAc, 10 mM Mg(OAc)2, and the mixture was incubated for 5 min at 30 °C. […] 1095 nM [^35S]-fMet-tRNA^fMet and the 60S solution were added (0.5 volumes of the 40S solution), resulting in the following concentrations: 330 nM 60S, 400 nM 40S, 730 nM tRNA, 11 µM mRNA and 11x of final concentration of a DPR in the buffer (20 mM Tris-acetate (pH 7.0), 100 mM KOAc, 10 mM Mg(OAc)2). The solution was incubated for 5 min at 30 °C. The solution was diluted ten times with the same buffer, then puromycin (prepared in the same buffer) was added and time progress curves were recorded.
(§1) The kinetics of puromycin reaction on the 70S or 80S ribosomes were recorded and analyzed essentially as described. An aliquot (4.5 μl) of the complex prior to addition of puromycin was quenched in 30 μl of saturated MgSO4 in 0.1 M NaOAc to represent the zero-time point. Five microliters of 500 µM puromycin (in the same buffer as that used for the ribosomal complex) was added to 45 μl of the complex to initiate the reaction, yielding estimated final concentrations: 30 nM for the ribosome, 1 µM mRNA, 66 nM [^35S]-fMet-tRNA^fMet, 50 µM puromycin, and varying concentrations of PRn and GRn peptides, from 30 nM to 2 μM. After 6, 15, 30, 90 s, and 5, 15, 30, 60, and (for slower reactions) 180 min, 5-μl aliquots were quenched in 30 μl of saturated MgSO4 in 0.1 M NaOAc. All quenched samples were extracted with 700 μl ethyl-acetate. 600 μl of the extract were mixed with 3.5 ml of Econo-Safe scintillation cocktail (RPI), and the amount of released [^35S]-labeled dipeptide was measured for each time point using a scintillation counter (Beckman Coulter, Inc.).
(§2) All time progress curves were recorded in duplicates, using independently prepared 70S or 80S complexes. Reaction rates were calculated using single-exponential or double-exponential (80S complexes) regressions for different concentrations of PRn and GRn using GraphPad Prism 8. Hyperbola fitting in Gnuplot was used to derive apparent Ki-values.

For the next data set, the system named is total HEK293 RNA. Put plainly: DPR-induced RNA aggregation, turbidity OD600. It counts as physicochemical. Conditions: for visible opalescence / OD600 change: 10 µM; for OD600 change / optical density relative to RNA alone: 100 ng/μl HEK293 RNA; for optical density relative to RNA alone: 0.2 to 1 µM, 20 min, room temperature. The protocol:
To test whether arginine-containing DPR proteins cause mRNA aggregation at the DPR concentrations sufficient to inhibit protein synthesis (0.2 and 1 μM), we measured turbidity (optical density at 600 nm; OD600; similarly to[41]) of the solutions containing 100 ng/μl total HEK293 RNA. We incubated RNA with PR20, GR20, GP20 (control), or water for 20 min at room temperature. […] Optical density was measured using NanoDrop One (Thermo Scientific, Waltham, MA, USA).

Data set [1] deals with translation in E. coli cell lysates. Put plainly: Nanoluciferase translation in E. coli cell lysate (NEBExpress). It counts as biochemical. Conditions: n=3. The protocol:
E. coli cell lysates (NEBExpress, NEB) were used to investigate bacterial translation inhibition by GR20 and PR20. We monitored the translation of an in vitro transcribed mRNA encoding a Shine-Dalgarno sequence preceding the nanoluciferase (Promega) open reading frame. The mRNA was prepared by in vitro transcription of a PCR-template obtained by amplifying the nanoluciferase open reading frame from the plasmid described in reference with the following primers: T7 + SD-forward: […], based on the pet28a+ plasmid and reverse: […]. […] Then 1 μl of water or different concentrations (10-100 μM) of PR20 or GR20 or 200 μM erythromycin were added and the plate was incubated at 37 °C for 5 min inside of an Infinite m1000 pro microplate reader (Tecan). Next, the nanoluciferase mRNA was added to the final concentration of 20 ng/μl in a 10-μl reaction. Translation reactions were incubated at 37 °C for 20 min, luminescence of the samples was continuously measured by the microplate reader to record the time course of protein synthesis. Time progress curves, obtained in the experiments, were processed in MS Excel, and the rate of change of the relative light units between 100 and 200 s was measured, the mean and SEM of three experiments is reported in column graph in Supplementary Fig. 2a.

A further data set concerns E. coli 70S ribosomes. Put plainly: Kinetic peptidyl transfer (puromycin) assay on E. coli 70S ribosomes. It counts as biochemical. Conditions: 30 nM 70S, 50 µM puromycin, 37 °C; n = 2; read-out: apparent inhibition constant (Ki) of peptidyl transfer. As to the method: The effects of GRn or PRn on peptide bond formation in E. coli ribosome were tested in an in vitro assay that reacts the 70S ribosome loaded with [^35S]-fMet-tRNA^fMet in the P-site with puromycin, an A-site tRNA mimic, and measures the release of the resulting dipeptide containing formyl-methionine covalently bonded to puromycin, as described. E. coli tRNA^fMet (Chemical Block) was aminoacylated with [^35S]-N-formyl-L-methionine (Perkin Elmer) as described. 70S ribosomes were prepared from E. coli (MRE600) as described. 70S ribosomes were stored in the ribosome-storage buffer (20 mM Tris-HCl, pH 7.0; 100 mM NH4Cl; 20 mM MgCl2) at –80 °C. A model mRNA fragment, containing the Shine-Dalgarno sequence and a spacer to position the AUG codon in the P-site and the UUC codon in the A site (GGCAAGGAGGUAAAAAUGUUC AAAAAA), was synthesized by IDT. 70S•mRNA•fMet-tRNA^fMet complexes with GRn (where n = 4, 10 or 20) or PRn (where n = 4, 10, 20 or 40) were formed as follows. 330 nM 70S ribosomes were incubated with 11 µM mRNA in buffer containing 20 mM Tris-acetate (pH 7.0), 100 mM NH4OAc, 12 mM Mg(OAc)2, for 2 min at 37 °C. 730 nM [^35S]-fMet-tRNA^fMet was added and incubated for 5 min at 37 °C. The solution was diluted 9.6-fold with the same buffer, followed by addition of a GRn or PRn repeat peptide (22x relative to its final concentration). The complex was incubated for 5 min at 37 °C prior to addition of puromycin dissolved in the same buffer (see below).
as §1, §2

In the case of `N=C(N)NCCC[C@H](NC(=O)CNC(=O)[C@H](CCCNC(=N)N)NC(=O)CNC(=O)[C@H](CCCNC(=N)N)NC(=O)CNC(=O)[C@H](CCCNC(=N)N)NC(=O)CNC(=O)[C@H](CCCNC(=N)N)NC(=O)CNC(=O)[C@H](CCCNC(=N)N)NC(=O)CNC(=O)[C@H](CCCNC(=N)N)NC(=O)CNC(=O)[C@H](CCCNC(=N)N)NC(=O)CNC(=O)[C@H](CCCNC(=N)N)NC(=O)CNC(=O)[C@H](CCCNC(=N)N)NC(=O)CNC(=O)[C@H](CCCNC(=N)N)NC(=O)CNC(=O)[C@H](CCCNC(=N)N)NC(=O)CNC(=O)[C@H](CCCNC(=N)N)NC(=O)CNC(=O)[C@H](CCCNC(=N)N)NC(=O)CNC(=O)[C@H](CCCNC(=N)N)NC(=O)CNC(=O)[C@H](CCCNC(=N)N)NC(=O)CNC(=O)[C@H](CCCNC(=N)N)NC(=O)CNC(=O)[C@H](CCCNC(=N)N)NC(=O)CNC(=O)[C@H](CCCNC(=N)N)NC(=O)CNC(=O)[C@H](CCCNC(=N)N)NC(=O)CN)C(=O)O` [GR20], the “effect on peptidyl transfer on rabbit 80S” value with rabbit 80S ribosomes (2 µM, n=2) was “inhibits peptidyl transfer”. Moreover, in the data set on total HEK293 RNA, the visible opalescence result is reported as “did not induce visible opalescence”, the OD600 change result was “increased OD600” and the “optical density relative to RNA alone” value was “did not increase optical density”. In addition, the “concentration needed to inhibit translation in E. coli lysate” value in data set [1] was > 10 µM. Also, the Ki in the data set on E. coli 70S ribosomes is 164 ± 31 nM.
As for “PRPRPRPRPRPRPRPRPRPRPRPRPRPRPRPRPRPRPRPR [PR20]”, in the data set on rabbit 80S ribosomes (30 nM 80S), the “concentration at which inhibition of peptidyl transfer starts” value is recorded as ~ 100 nM. Moreover, in the data set with total HEK293 RNA, the visible opalescence entry is “did not induce visible opalescence”, the OD600 change result is “increased OD600” and the “optical density relative to RNA alone” value is listed as “did not increase optical density”. In addition, the “concentration needed to inhibit translation in E. coli lysate” value in data set [1] is ≥ 5 µM. For the same compound, the Ki with E. coli 70S ribosomes came to 44 ± 9 nM.
